Key:
[1] = test system: broadly tuned olfactory receptor OR2W1; conditions: cited from earlier work
[2] = test system: olfactory receptor OR51E1; test: Luciferase (GloSensor cAMP) assay, response of olfactory receptor to hexanal; format: cell-based, human; conditions: HEK293T cells expressing OR51E1; various hexanal concentrations; Figure 6
Method: (§1) 0.05 µg of human olfactory receptor gene expression vector, 0.01 µg of RTP1S vector, and 0.01 µg of firefly luciferase vector pGloSensor™-22F cAMP Plasmid (Promega) containing CMV promoter were dissolved in 10 µL of Opti-MEM I (Gibco) to prepare a gene solution (per well). HEK293T cells were seeded at 100 µL per well in a 96-well plate (Biocoat, Corning) at a number of cells that reached subconfluence after 24 hours, and the gene solution was added to each well by lipofection according to the usage of Lipofectamine 3000 so that the cells were transfected with the gene and cultured at 37°C in a 5% carbon dioxide atmosphere for 24 hours. After removal of the culture solution, the cells were washed once with HEPES buffer, and 100 µL of GloSensor™ cAMP Reagent (Promega), adjusted to a predetermined concentration with HEPES buffer supplemented with FBS, was added to each well, and allowed to stand for 2 hours at room temperature. Then, 10 µL of 10 mM hexanal solution prepared in HEPES buffer supplemented with 300 µM CuCl2 and FBS was added to each well, and the changes in the response value of the luciferase activity over time were measured every minute immediately after the addition, thus obtaining the responses of approximately 400 human olfactory receptors to hexanal. The magnitude of the olfactory receptor response was expressed as a fold increase value obtained by dividing the maximum response value of luciferase activity that occurred after stimulation with hexanal by the luciferase activity before the stimulation with hexanal. Accordingly, OR2C1, OR2J2, OR2J3, OR5K1, OR5P3 and OR51E1 were identified as candidate olfactory receptors responsive to hexanal. After that, an aroma compound as a sample was prepared in HEPES buffer supplemented with 300 µM CuCl2 and FBS to a concentration 10 times the final concentration. 10 µL this aroma compound stimulation solution was added to each well, and the changes in the luciferase activity over time were measured every minute immediately after the addition to obtain the responses of approximately 400 human olfactory receptors to the aroma compound. The magnitude of the response of the olfactory receptor was expressed as a fold increase value determined by dividing the maximum luciferase activity value that occurred by the stimulation with the aroma compound by the luciferase activity before the stimulation with the aroma compound.
(§2) The responses of hexanal, which is an offensive odor-causing substance, to the olfactory receptors OR2C1, OR2J2, OR2J3, OR5K1, OR5P3 and OR51E1 were measured at various concentrations by the luciferase activity assay described above.

olfactory receptor OR5K1 = test: as above; format: cell-based, human; conditions: HEK293T cells expressing OR5K1; various hexanal concentrations; Figure 4
Method: as §1, §2

olfactory receptor OR2J3 = test: as above; format: cell-based, human; conditions: HEK293T cells expressing OR2J3; various hexanal concentrations; Figure 3
Method: as §1, §2

olfactory receptor OR2C1 = test: as above; format: cell-based, human; conditions: HEK293T cells expressing OR2C1; various hexanal concentrations; Figure 1
Method: as §1, §2

olfactory receptor OR5P3 = test: as above; format: cell-based, human; conditions: HEK293T cells expressing OR5P3; various hexanal concentrations; Figure 5
Method: as §1, §2

olfactory receptor OR2J2 = test: as above; format: cell-based, human; conditions: HEK293T cells expressing OR2J2; various hexanal concentrations; Figure 2
Method: as §1, §2

[3] = test system: cells that do not express olfactory receptors; test: Luciferase assay, mock test; format: cell-based
Method: 0.05 µg of human olfactory receptor gene expression vector, 0.01 µg of RTP1S vector, and 0.01 µg of firefly luciferase vector pGloSensor™-22F cAMP Plasmid (Promega) containing CMV promoter were dissolved in 10 µL of Opti-MEM I (Gibco) to prepare a gene solution (per well). HEK293T cells were seeded at 100 µL per well in a 96-well plate (Biocoat, Corning) at a number of cells that reached subconfluence after 24 hours, and the gene solution was added to each well by lipofection according to the usage of Lipofectamine 3000 so that the cells were transfected with the gene and cultured at 37°C in a 5% carbon dioxide atmosphere for 24 hours. […] Then, 10 µL of 10 mM hexanal solution prepared in HEPES buffer supplemented with 300 µM CuCl2 and FBS was added to each well, and the changes in the response value of the luciferase activity over time were measured every minute immediately after the addition, thus obtaining the responses of approximately 400 human olfactory receptors to hexanal. The magnitude of the olfactory receptor response was expressed as a fold increase value obtained by dividing the maximum response value of luciferase activity that occurred after stimulation with hexanal by the luciferase activity before the stimulation with hexanal. […]

| SMILES | suppression of the OR2W1 response ([1]; masking agent against hexanal, Non-patent literature 6) | response of olfactory receptor OR51E1 to hexanal (fold increase value) [2] | response of olfactory receptor OR5K1 to hexanal (fold increase value) (olfactory receptor OR5K1) | response of olfactory receptor OR2J3 to hexanal (fold increase value) (olfactory receptor OR2J3) | response of olfactory receptor OR2C1 to hexanal (fold increase value) (olfactory receptor OR2C1) | response of olfactory receptor OR5P3 to hexanal (fold increase value) (olfactory receptor OR5P3) | response of olfactory receptor OR2J2 to hexanal (fold increase value) (olfactory receptor OR2J2) | hexanal response of OR2W1 ([1]; in vitro tests, prior art) | response to hexanal in the mock test [3] |
| --- | --- | --- | --- | --- | --- | --- | --- | --- | --- |
| CC1=CCC2CC1C2(C)C (stereo not drawn) [alpha-pinene] | suppress the OR2W1 response |  |  |  |  |  |  |  |  |
| CCCCCC=O [hexanal] |  | concentration-dependent responses | concentration-dependent responses | concentration-dependent responses | concentration-dependent responses | concentration-dependent responses | concentration-dependent responses | concentration-dependent hexanal response | no response was observed |

Reference: patent EP4589010A1, “SCREENING METHOD FOR OFFENSIVE ODOR SUPPRESSING MATERIAL” (priority 2022, dated 2024)
